For series [1], the system named is Streptococcus pyogenes SSI-9. The series can be described thus: Antibacterial activity assay of bead-derived peptides (three concentrations). It counts as cell-based. Set-up: key: +++: inhibition by the 640-fold diluted peptide solution; ++: inhibition by the 160-fold diluted solution; +: inhibition by the 40-fold diluted solution; -: no inhibition. To be noted: S. pyogenes, bead-derived peptide solution, three concentrations. The essentials: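 Library peptide stock applied undiluted, 4-fold and 16-fold diluted in DMSO to S. pyogenes SSI-9 (2 × 10^5 CFU) in cation-adjusted Mueller Hinton broth with 5% laked horse blood. After 18 h at 37 °C, growth judged by visible cell precipitation.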

A short description of series [2]: H+/Na+ transport assay of bead-derived peptides (one-point).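 Note: relative to parent gramicidin A activity set to 1.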 The arrangement: key: relative activity; mean of two control wells = 1.00. To be noted: bead-derived peptide solution, EYPC/EYPG LUVs. It counts as biochemical. Summed up: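 One-point screen: peptide + pyranine-loaded LUVs, 30 min RT with vortexing, 96-well. Read-out is fluorescence intensity scaled as 100 × (Ix – I0)/(Imax – I0). Imax from Triton X-100, I0 from untreated vesicles, and the mean of the two control wells is set to 1.00.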

For series [3], the system named is P388 mouse leukemia cells. To be noted: 92 h. The essentials: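 P388 cells at 1 × 10^4 cells/mL (final) were exposed to library peptides (stocks diluted 250-fold in RPMI1640/10% FBS) for 92 h at 37 °C, 5% CO2. Viable cells were counted by WST-1/1-methoxy PMS (4 h), absorbance 415 nm, and expressed as cell viability (%).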

Where a SMILES comes first, the peptide text is derived from it. [ ]: non-standard residue; d: D form. The star is where a group is joined. NHCH2CH2OH = OCCN*; For = O=C*

Turning to `CNC(=O)C[C@@H](NC(=O)[C@@H](NC(=O)[C@H](NC(=O)[C@H](C)NC(=O)[C@@H](CC(C)C)NC(=O)[C@H](C)NC(=O)CNC(=O)[C@@H](NC=O)C(C)C)C(C)C)C(C)C)C(=O)N[C@@H](Cc1c[nH]c2ccccc12)C(=O)N[C@@H](C(=O)N[C@@H](Cc1c[nH]c2ccccc12)C(=O)N[C@H](CC(C)C)C(=O)N[C@@H](Cc1c[nH]c2ccccc12)C(=O)N[C@@H](C(=O)N[C@@H](Cc1c[nH]c2ccccc12)C(=O)NCCO)C(C)C)C(C)C` [compound 5185] (For-VGA[dL]A[dV]V[dD](NHMe)W[dV]W[dL]W[dV]W-NHCH2CH2OH), the antibacterial activity entry in series [1] is recorded as “-”. The “H+/Na+ transport activity normalized against the value of 1 (1.00)” value (“H+/Na+ transport activity normalized” below) in series [2] was 1.40. The compound also yielded a cell viability/% in series [3] of 100.0%.

With `CC(C)C[C@@H](NC(=O)[C@H](C)NC(=O)CNC(=O)[C@@H](NC=O)C(C)C)C(=O)N[C@@H](C)C(=O)N[C@@H](C(=O)N[C@H](C(=O)N[C@@H](C(=O)N[C@@H](Cc1c[nH]c2ccccc12)C(=O)N[C@@H](C(=O)N[C@@H](Cc1c[nH]c2ccccc12)C(=O)N[C@H](CC(C)C)C(=O)N[C@@H](Cc1c[nH]c2ccccc12)C(=O)N[C@H](CC(C)C)C(=O)N[C@@H](Cc1c[nH]c2ccccc12)C(=O)NCCO)C(C)C)[C@H](C)O)C(C)C)C(C)C` [compound 9832] (For-VGA[dL]A[dV]V[dT]W[dV]W[dL]W[dL]W-NHCH2CH2OH), in series [1], the antibacterial activity result is “-”. The “H+/Na+ transport activity normalized” value in series [2] is 1.26. This compound displayed a cell viability/% in series [3] of 100.0%.

For `CC(C)C[C@@H](NC(=O)[C@H](C)NC(=O)CNC(=O)[C@@H](NC=O)C(C)C)C(=O)N[C@@H](C)C(=O)N[C@@H](C(=O)N[C@H](C(=O)N[C@@H](C(=O)N[C@@H](Cc1c[nH]c2ccccc12)C(=O)N[C@@H](C(=O)N[C@@H](Cc1c[nH]c2ccccc12)C(=O)N[C@H](CC(C)C)C(=O)N[C@@H](Cc1c[nH]c2ccccc12)C(=O)N[C@@H](C(=O)N[C@@H](Cc1c[nH]c2ccccc12)C(=O)NCCO)C(C)C)C(C)C)C(C)C)C(C)C)C(C)C` [compound 9036] (For-VGA[dL]A[dV]V[dV]W[dV]W[dL]W[dV]W-NHCH2CH2OH), the antibacterial activity entry in series [1] is “+”. Moreover, the “H+/Na+ transport activity normalized” value in series [2] was determined as 1.18. Also, the cell viability/% in series [3] is 94.7%.

With `CC(C)C[C@@H](NC(=O)[C@H](C)NC(=O)CNC(=O)[C@@H](NC=O)C(C)C)C(=O)N[C@@H](C)C(=O)N[C@H](CC(C)C)C(=O)N[C@H](C(=O)N[C@H](CC(C)C)C(=O)N[C@@H](Cc1c[nH]c2ccccc12)C(=O)N[C@H](CC(C)C)C(=O)N[C@@H](Cc1c[nH]c2ccccc12)C(=O)N[C@@H](C(=O)N[C@@H](Cc1c[nH]c2ccccc12)C(=O)N[C@@H](C(=O)N[C@@H](Cc1c[nH]c2ccccc12)C(=O)NCCO)C(C)C)C(C)C)C(C)C` [compound 11214] (For-VGA[dL]A[dL]V[dL]W[dL]W[dV]W[dV]W-NHCH2CH2OH), in series [1], the antibacterial activity result is “-”. For the same compound, in series [2], the “H+/Na+ transport activity normalized” value is on record as 1.02. Also, the cell viability/% in series [3] stood at 2.6%.

For the compound `CC(C)C[C@@H](NC(=O)[C@H](C)NC(=O)[C@H](NC(=O)[C@H](C)NC(=O)CNC(=O)[C@@H](NC=O)C(C)C)C(C)C)C(=O)N[C@H](C(=O)N[C@H](CC(C)C)C(=O)N[C@@H](Cc1c[nH]c2ccccc12)C(=O)N[C@@H](C(=O)N[C@@H](Cc1c[nH]c2ccccc12)C(=O)N[C@@H](C(=O)N[C@@H](Cc1c[nH]c2ccccc12)C(=O)N[C@H](CC(C)C)C(=O)N[C@@H](Cc1c[nH]c2ccccc12)C(=O)NCCO)C(C)C)[C@H](C)O)C(C)C` [compound 7325] (For-VGA[dV]A[dL]V[dL]W[dT]W[dV]W[dL]W-NHCH2CH2OH), the antibacterial activity result in series [1] is given as “-”. For the same compound, in series [2], the “H+/Na+ transport activity normalized” value worked out at 1.04. The cell viability/% in series [3] amounted to 82.2%.

Source of the values: PMC7531004, “Discovery of gramicidin A analogues with altered activities by multidimensional screening of a one-bead-one-compound library” (Nature Communications, 2020).
